Patent publication US11191806B2, “Polymyxin-based pharmaceutical composition for treating infectious diseases” (priority 2018, dated 2021)
One block for each compound: values may come before it. Bridge positions count the residues as written; N and C are the ends. Square brackets hold non-standard residues; d marks the D form. Peptide text beside a SMILES is read from it. * marks the point of attachment. X1 = CC[C@H](C)CCCCC(=O)*; Dab = NCC[C@H](N)C(=O)O

Legend:
[1] = target: T1, megalin of rat kidney homogenate (Rattus norvegicus, UniProt P98158); test: Binding of cyanocobalamin derivatives to renal megalin (micromethod in Eppendorf tubes, HPLC of supernatant); settings: derivative in supernatant after centrifugation determined by HPLC
T1 construct: megalin of rat kidney homogenate; from tissue; host or cells: rat kidney homogenate
T1 sequence (P98158 26-4660): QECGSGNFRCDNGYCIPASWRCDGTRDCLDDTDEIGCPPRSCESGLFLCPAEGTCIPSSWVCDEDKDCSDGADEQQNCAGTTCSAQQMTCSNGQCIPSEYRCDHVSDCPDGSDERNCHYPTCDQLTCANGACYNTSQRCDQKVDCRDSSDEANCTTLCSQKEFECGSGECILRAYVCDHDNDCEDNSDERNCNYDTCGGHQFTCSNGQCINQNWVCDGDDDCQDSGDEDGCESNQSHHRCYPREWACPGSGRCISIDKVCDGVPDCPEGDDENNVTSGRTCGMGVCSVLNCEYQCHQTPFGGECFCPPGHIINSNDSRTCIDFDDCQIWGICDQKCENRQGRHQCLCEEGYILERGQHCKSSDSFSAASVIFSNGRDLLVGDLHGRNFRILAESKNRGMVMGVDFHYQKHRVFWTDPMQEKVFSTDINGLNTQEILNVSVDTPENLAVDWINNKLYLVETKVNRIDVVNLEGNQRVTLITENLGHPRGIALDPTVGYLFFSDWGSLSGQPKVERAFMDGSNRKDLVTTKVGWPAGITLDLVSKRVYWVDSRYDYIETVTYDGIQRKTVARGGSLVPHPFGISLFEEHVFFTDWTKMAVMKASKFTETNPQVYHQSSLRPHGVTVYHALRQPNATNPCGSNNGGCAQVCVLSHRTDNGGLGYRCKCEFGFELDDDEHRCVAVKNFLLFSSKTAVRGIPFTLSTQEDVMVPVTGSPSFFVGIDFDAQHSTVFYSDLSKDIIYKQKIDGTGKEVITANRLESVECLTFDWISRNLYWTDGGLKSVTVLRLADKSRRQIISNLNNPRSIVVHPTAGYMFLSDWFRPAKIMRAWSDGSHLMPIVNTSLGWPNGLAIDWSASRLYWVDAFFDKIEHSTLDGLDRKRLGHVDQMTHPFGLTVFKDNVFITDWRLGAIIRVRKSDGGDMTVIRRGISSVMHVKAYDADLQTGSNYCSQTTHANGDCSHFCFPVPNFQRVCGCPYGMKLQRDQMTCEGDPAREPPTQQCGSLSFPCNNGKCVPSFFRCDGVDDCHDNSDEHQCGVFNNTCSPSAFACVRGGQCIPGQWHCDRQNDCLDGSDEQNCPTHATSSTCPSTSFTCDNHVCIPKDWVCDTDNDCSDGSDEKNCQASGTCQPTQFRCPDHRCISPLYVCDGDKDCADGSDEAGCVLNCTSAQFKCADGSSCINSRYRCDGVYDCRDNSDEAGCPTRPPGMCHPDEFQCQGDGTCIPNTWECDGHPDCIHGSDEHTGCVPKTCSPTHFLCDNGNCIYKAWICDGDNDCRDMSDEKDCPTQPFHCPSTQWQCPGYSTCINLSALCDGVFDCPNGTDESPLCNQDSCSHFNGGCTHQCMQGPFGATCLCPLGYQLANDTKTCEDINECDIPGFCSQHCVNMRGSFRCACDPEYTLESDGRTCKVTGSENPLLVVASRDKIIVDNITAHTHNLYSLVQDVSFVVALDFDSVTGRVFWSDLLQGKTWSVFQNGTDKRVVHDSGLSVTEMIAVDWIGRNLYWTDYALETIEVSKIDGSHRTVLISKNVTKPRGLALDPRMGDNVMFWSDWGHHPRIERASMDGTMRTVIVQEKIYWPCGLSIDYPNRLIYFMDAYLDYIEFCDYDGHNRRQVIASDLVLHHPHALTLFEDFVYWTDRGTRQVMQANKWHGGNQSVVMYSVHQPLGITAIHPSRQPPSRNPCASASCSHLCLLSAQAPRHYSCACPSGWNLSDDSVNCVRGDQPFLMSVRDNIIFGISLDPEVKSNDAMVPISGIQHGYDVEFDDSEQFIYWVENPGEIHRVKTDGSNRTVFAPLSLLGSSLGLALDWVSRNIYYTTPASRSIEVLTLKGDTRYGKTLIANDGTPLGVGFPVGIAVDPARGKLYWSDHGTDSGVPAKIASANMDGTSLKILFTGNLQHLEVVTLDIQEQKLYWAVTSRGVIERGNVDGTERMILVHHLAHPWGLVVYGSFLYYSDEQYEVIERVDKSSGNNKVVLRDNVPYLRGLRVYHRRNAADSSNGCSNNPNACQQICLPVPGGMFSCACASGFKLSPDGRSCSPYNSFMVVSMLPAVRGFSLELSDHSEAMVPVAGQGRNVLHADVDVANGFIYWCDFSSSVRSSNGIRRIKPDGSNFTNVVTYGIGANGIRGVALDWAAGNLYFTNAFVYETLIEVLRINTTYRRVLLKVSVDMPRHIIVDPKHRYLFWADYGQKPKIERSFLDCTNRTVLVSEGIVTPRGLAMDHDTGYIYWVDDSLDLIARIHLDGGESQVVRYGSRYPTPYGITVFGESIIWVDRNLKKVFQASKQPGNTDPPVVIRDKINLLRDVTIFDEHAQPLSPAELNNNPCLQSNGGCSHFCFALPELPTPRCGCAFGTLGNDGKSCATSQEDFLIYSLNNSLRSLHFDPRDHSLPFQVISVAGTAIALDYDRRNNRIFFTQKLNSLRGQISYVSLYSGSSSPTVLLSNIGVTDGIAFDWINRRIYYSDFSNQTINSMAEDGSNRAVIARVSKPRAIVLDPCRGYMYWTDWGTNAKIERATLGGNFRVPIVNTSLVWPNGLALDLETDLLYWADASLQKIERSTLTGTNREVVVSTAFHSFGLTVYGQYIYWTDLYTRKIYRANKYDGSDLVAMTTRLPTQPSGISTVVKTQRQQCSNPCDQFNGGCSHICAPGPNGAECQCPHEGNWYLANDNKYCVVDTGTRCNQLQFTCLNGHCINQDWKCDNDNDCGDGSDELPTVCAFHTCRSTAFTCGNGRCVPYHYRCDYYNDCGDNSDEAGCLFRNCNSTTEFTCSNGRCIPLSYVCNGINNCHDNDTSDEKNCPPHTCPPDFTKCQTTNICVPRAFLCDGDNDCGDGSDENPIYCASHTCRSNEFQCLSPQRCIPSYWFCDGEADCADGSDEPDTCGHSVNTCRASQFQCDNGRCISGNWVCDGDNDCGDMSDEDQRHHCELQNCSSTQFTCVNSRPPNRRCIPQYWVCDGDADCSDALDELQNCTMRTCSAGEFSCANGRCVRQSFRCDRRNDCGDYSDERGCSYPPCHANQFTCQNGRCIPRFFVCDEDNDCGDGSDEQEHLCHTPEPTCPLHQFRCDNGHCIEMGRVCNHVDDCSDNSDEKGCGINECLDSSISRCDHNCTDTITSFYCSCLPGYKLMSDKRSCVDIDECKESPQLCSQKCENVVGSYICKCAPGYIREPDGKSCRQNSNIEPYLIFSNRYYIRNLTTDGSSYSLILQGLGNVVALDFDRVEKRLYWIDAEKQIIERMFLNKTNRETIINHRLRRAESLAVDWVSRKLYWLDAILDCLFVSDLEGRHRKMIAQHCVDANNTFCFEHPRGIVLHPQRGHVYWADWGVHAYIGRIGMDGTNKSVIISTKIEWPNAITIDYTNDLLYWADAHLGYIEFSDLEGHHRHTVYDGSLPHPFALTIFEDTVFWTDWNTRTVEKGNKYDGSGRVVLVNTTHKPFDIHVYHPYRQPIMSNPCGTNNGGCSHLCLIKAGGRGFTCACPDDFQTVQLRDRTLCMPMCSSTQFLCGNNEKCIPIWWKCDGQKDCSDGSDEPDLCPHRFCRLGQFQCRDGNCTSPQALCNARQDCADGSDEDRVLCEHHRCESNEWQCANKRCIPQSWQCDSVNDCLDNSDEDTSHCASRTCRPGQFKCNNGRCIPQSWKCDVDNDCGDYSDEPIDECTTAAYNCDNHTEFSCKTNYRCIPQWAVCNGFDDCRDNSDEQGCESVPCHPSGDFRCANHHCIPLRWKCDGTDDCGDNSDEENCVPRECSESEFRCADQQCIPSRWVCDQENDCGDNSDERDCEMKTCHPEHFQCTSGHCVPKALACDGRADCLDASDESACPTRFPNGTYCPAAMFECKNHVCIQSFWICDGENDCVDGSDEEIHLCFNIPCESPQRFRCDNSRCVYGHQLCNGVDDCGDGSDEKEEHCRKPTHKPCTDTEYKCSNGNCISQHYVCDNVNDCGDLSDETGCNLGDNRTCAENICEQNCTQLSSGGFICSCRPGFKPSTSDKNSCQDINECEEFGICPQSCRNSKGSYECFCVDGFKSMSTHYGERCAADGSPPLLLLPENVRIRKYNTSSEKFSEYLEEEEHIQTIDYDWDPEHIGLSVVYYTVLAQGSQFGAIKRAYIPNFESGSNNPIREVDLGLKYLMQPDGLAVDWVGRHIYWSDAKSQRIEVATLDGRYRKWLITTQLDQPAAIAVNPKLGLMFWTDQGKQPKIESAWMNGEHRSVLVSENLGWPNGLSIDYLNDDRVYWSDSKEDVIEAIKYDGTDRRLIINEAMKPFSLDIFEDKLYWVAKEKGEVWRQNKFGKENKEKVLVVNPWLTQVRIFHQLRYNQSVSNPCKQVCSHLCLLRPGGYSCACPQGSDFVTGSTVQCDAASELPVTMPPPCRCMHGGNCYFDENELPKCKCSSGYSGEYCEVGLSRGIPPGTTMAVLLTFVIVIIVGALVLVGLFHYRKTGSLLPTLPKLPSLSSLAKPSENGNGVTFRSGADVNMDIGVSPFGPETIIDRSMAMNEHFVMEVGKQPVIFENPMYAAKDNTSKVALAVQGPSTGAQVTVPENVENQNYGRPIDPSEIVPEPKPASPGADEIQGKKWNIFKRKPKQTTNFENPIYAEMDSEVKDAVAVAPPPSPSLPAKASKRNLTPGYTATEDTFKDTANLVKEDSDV
Procedure: The test was carried out by a micromethod in Eppendorf tubes on the ability of cyanocobalamin derivatives to bind to megalin: after centrifugation, the bound derivative together with megalin remained in the sediment, and the percentage of the remaining unreacted cyanocobalamin derivative in the supernatant was determined using HPLC on a Milichrom A-02 liquid chromatograph.

[2] = Degree of destruction of kidney tissue: urinary NGAL and NAG (ELISA); type: in vivo, rats
Procedure: The degree of destruction of kidney tissue was determined by the concentration in the urine of acetyl-beta-glucosaminidase (N-acetyl-beta-d-glucosaminidase) (NAG) and neutrophilic gelatinase-associated lipocalin (neutrophil gelatinase-associated lipocalin) (NGAL) (Table 5).
The concentrations of NGAL and NAG in urine were determined using ELISA-text systems on a StatFax303+reader.

[3] = Accumulation of colistin in the kidneys after intravenous injection; type: in vivo; settings: rats, colistin 0.5 mg/kg, SCDC 2 mg/kg
Procedure: In this experiment was determined, the accumulation of colistin in the kidneys of rats after intravenous injection of Polyfro (colistin, SCDC and liposomal cholecalciferol). Concentrations of colistin (CC), SCDC/cholecalciferol (CCF) were used based on preliminary modeling (the number of binding sites in one molecule, multiplied by their number in one megalin molecule, the molecular weight of megalin and the approximate amount of megalin in one kidney and the weight of the kidney) The result was the required amount of SCDC about 2 mg/kg of weight. For CS, a subtoxic dose was selected (based on the instructions). This is an experiment on the “displacement” of polymyxin from the kidneys with a synergistic combination of SCDC/HCF. As a result, about half of the polymyxin was displaced from the kidneys by SCDC/HCF. All components of CC, SCDC/CCF were determined in the sediment of renal homogenate and supernatant by HPLC. […] The content of colistin in the kidneys (A) and its concentration in terms of the weight of the kidneys (μg/g) (B) are shown in FIG. 1.
All data are statistically significant and differences between groups and controls are significant.

[4] = Table 5, rats, i.v. 1 time per day for 10 days, 0.5/15 mg/kg polymyxin/SCDC

% bound derivative [1]: 7%
Compound: triacetyl-cyanocobalamin [derivative 31]

% bound derivative [1]: 52%
Compound: cyanocobalamin [derivative 11]

% bound derivative [1]: 6%
Compound: trisuccinyl-cyanocobalamin [derivative 30]

Compound: CC[C@H](C)CCCCC(=O)N[C@@H](CCN)C(=O)N[C@H](C(=O)N[C@@H](CCN)C(=O)N[C@H]1CCNC(=O)[C@H]([C@@H](C)O)NC(=O)[C@H](CCN)NC(=O)[C@H](CCN)NC(=O)[C@H](CC(C)C)NC(=O)[C@@H](CC(C)C)NC(=O)[C@H](CCN)NC1=O)[C@@H](C)O [Colistin, colistin] (X1-[Dab]T[Dab][Dab][Dab][dL]L[Dab][Dab]T; lactam 4-C)
Urinary Excretion of NGAL [2, 4]: 775 ± 33 µg/h
Urinary NAG Excretion [2, 4]: 2578 ± 95 µg/h
Urinary Excretion of NGAL ([2]; Table 6, n = 15): 775 ± 33 µg/h
Urinary NAG Excretion ([2]; Table 6, n = 15): 2578 ± 95 µg/h
Accumulation of colistin in the kidneys [3]: 20.5 ± 2.5 µg
